{"source": "patent US20240027453A1", "about": "“METHOD FOR DETECTION AND QUANTITATIVE MONITORING OF INFECTIONS WITH HERPESVIRUSES” (The Trustees of Princeton University, priority 2020, published 2024)", "tested_on": "HCMV", "type": "cell-based", "conditions": "for IRS1 (P09715) protein level / TRS1 (P09695) protein level / UL13 (P16755) protein level / UL36 (P16767) protein level / UL37 (P16778) protein level / UL122 (P19893) protein level / UL123 (P13202) protein level: IE", "summary_of_the_method": "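Viral protein levels come from parallel reaction monitoring on a Q Exactive HF: trypsin digests of infected-cell lysates, quantified as summed transition areas, normalized to host control peptides, averaged across peptides per protein. Cells were MRC5 fibroblasts, infected at MOI 3 (HSV-1 or HCMV) after 12 h compound pretreatment, with re-dosing every 24 h.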", "note": "Read-outs that look alike come from different tables or passages of the source.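 For TRM2 (P16792) protein level in this document: each peptide scaled to its average across all runs.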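 For UL102 (P16827) protein level in this document: each peptide scaled to its average across all runs.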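 For UL119/UL118 (P16739) protein level in this document: each peptide scaled to its average across all runs.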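 For UL13 (P16755) protein level in this document: each peptide scaled to its average across all runs.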"}
{"compound": "Nc1c(S(=O)(=O)c2ccccc2)c2nc3ccccc3nc2n1-c1ccc(F)cc1", "note": "[CAY10602]", "values": [{"measurement": "UL102 (P16827) protein level", "setting": "timepoint 48, DE", "value": 0.7866}, {"measurement": "UL104 (P16735) protein level", "setting": "timepoint 48, DE", "value": 0.07399}, {"measurement": "UL112/UL113 (P17151) protein level", "setting": "timepoint 48, DE", "value": 0.423}, {"measurement": "UL114 (P16769) protein level", "setting": "timepoint 48, DE", "value": 0.7709}, {"measurement": "UL119/UL118 (P16739) protein level", "setting": "timepoint 48, DE", "value": 0.3402}, {"measurement": "UL128 (P16837) protein level", "setting": "timepoint 48, DE", "value": 0.06729}, {"measurement": "US8 (P09730) protein level", "setting": "timepoint 48, DE", "value": 0.8905}, {"measurement": "US9 (P09729) protein level", "setting": "timepoint 48, DE", "value": 0.6117}, {"measurement": "US12 (P09721) protein level", "setting": "timepoint 48, DE", "value": 0.9446}, {"measurement": "US13 (P09720) protein level", "setting": "timepoint 48, DE", "value": 0.9123}, {"measurement": "US14 (P09719) protein level", "setting": "timepoint 48, DE", "value": 0.1589}, {"measurement": "US18 (P69334) protein level", "setting": "timepoint 48, DE", "value": 0.5367}, {"measurement": "US22 (P09722) protein level", "setting": "timepoint 48, DE", "value": 0.542}, {"measurement": "US23 (P09701) protein level", "setting": "timepoint 48, DE", "value": 0.4283}, {"measurement": "US24 (P09700) protein level", "setting": "timepoint 48, DE", "value": 0.42}, {"measurement": "US34 (P09709) protein level", "setting": "timepoint 48, DE", "value": 0.4118}, {"measurement": "gB (P06473) protein level", "setting": "timepoint 48, DE", "value": 0.09671}, {"measurement": "IRS1 (P09715) protein level", "setting": "timepoint 48", "value": 0.5813}, {"measurement": "TRS1 (P09695) protein level", "setting": "timepoint 48", "value": 0.446}, {"measurement": "UL13 (P16755) protein level", "setting": "timepoint 48", "value": 0.4405}, {"measurement": "UL36 (P16767) protein level", "setting": "timepoint 48", "value": 0.9117}, {"measurement": "UL37 (P16778) protein level", "setting": "timepoint 48", "value": 0.7557}, {"measurement": "UL122 (P19893) protein level", "setting": "timepoint 48", "value": 0.05121}, {"measurement": "UL123 (P13202) protein level", "setting": "timepoint 48", "value": 0.5672}, {"measurement": "CVC1 (P16799) protein level", "setting": "timepoint 48, L", "value": 0.1115}, {"measurement": "IR11 (P16809) protein level", "setting": "timepoint 48, L", "value": 0.3707}, {"measurement": "MCP (P16729) protein level", "setting": "timepoint 48, L", "value": 0.006609}, {"measurement": "SCP (Q7M6N6) protein level", "setting": "timepoint 48, L", "value": 0.004793}, {"measurement": "TRM2 (P16792) protein level", "setting": "timepoint 48, L", "value": 0.05665}, {"measurement": "UL22A (P16845) protein level", "setting": "timepoint 48, L", "value": 0.1015}, {"measurement": "UL25 (P16761) protein level", "setting": "timepoint 48, L", "value": 0.0624}, {"measurement": "UL29 (P16764) protein level", "setting": "timepoint 48, L", "value": 0.7556}, {"measurement": "UL30 (P16765) protein level", "setting": "timepoint 48, L", "value": 0.1538}, {"measurement": "UL31 (P16848) protein level", "setting": "timepoint 48, L", "value": 0.1445}, {"measurement": "UL43 (P16781) protein level", "setting": "timepoint 48, L", "value": 0.04992}, {"measurement": "UL52 (P16793) protein level", "setting": "timepoint 48, L", "value": 0.05111}, {"measurement": "UL80 (P16753) protein level", "setting": "timepoint 48, L", "value": 0.03588}, {"measurement": "UL82 (P06726) protein level", "setting": "timepoint 48, L", "value": 0.1061}, {"measurement": "UL88 (P16731) protein level", "setting": "timepoint 48, L", "value": 0.08754}, {"measurement": "UL94 (P16800) protein level", "setting": "timepoint 48, L", "value": 0.07429}, {"measurement": "UL99 (P13200) protein level", "setting": "timepoint 48, L", "value": 0.05165}, {"measurement": "UL103 (P16734) protein level", "setting": "timepoint 48, L", "value": 0.1567}, {"measurement": "UL117 (P16770) protein level", "setting": "timepoint 48, L", "value": 0.383}, {"measurement": "gH (P12824) protein level", "setting": "timepoint 48, L", "value": 0.06336}, {"measurement": "gL (P16832) protein level", "setting": "timepoint 48, L", "value": 0.05192}, {"measurement": "gM (P16733) protein level", "setting": "timepoint 48, L", "value": 0.02415}, {"measurement": "gN (P16795) protein level", "setting": "timepoint 48, L", "value": 0.1118}, {"measurement": "DUT (P16824) protein level", "setting": "timepoint 48, LL", "value": 0.2582}, {"measurement": "IR12 (P16810) protein level", "setting": "timepoint 48, LL", "value": 0.2908}, {"measurement": "TRM3 (P16732) protein level", "setting": "timepoint 48, LL", "value": 0.01695}, {"measurement": "TRX1 (P16783) protein level", "setting": "timepoint 48, LL", "value": 0.006112}, {"measurement": "TRX2 (P16728) protein level", "setting": "timepoint 48, LL", "value": 0.006041}, {"measurement": "UL24 (P16760) protein level", "setting": "timepoint 48, LL", "value": 0.1155}, {"measurement": "UL40 (P16780) protein level", "setting": "timepoint 48, LL", "value": 0.63}, {"measurement": "UL47 (P16784) protein level", "setting": "timepoint 48, LL", "value": 0.02023}, {"measurement": "UL49 (P16786) protein level", "setting": "timepoint 48, LL", "value": 0.187}, {"measurement": "UL69 (P16749) protein level", "setting": "timepoint 48, LL", "value": 0.1615}, {"measurement": "UL70 (P17149) protein level", "setting": "timepoint 48, LL", "value": 0.3937}, {"measurement": "UL83 (P06725) protein level", "setting": "timepoint 48, LL", "value": 0.02048}, {"measurement": "UL132 (P69338) protein level", "setting": "timepoint 48, LL", "value": 0.09662}, {"measurement": "US15 (P09718) protein level", "setting": "timepoint 48, LL", "value": 0.5168}, {"measurement": "CVC2 (P16726) protein level", "setting": "timepoint 72, DE", "value": 0.03983}, {"measurement": "DBP (P17147) protein level", "setting": "timepoint 72, DE", "value": 0.391}, {"measurement": "HELI (P16736) protein level", "setting": "timepoint 72, DE", "value": 0.5709}, {"measurement": "IR01 (P09710) protein level", "setting": "timepoint 72, DE", "value": 0.2588}, {"measurement": "NEC2 (P16791) protein level", "setting": "timepoint 72, DE", "value": 0.11}, {"measurement": "RIR1 (P16782) protein level", "setting": "timepoint 72, DE", "value": 0.1099}, {"measurement": "TRM1 (P16724) protein level", "setting": "timepoint 72, DE", "value": 0.1317}, {"measurement": "UL4 (P17146) protein level", "setting": "timepoint 72, DE", "value": 0.06765}, {"measurement": "UL26 (P16762) protein level", "setting": "timepoint 72, DE", "value": 0.1023}, {"measurement": "UL32 (P08318) protein level", "setting": "timepoint 72, DE", "value": 0.02678}, {"measurement": "UL34 (P16812) protein level", "setting": "timepoint 72, DE", "value": 0.09048}, {"measurement": "UL35 (P16766) protein level", "setting": "timepoint 72, DE", "value": 0.02871}, {"measurement": "UL38 (P16779) protein level", "setting": "timepoint 72, DE", "value": 0.5839}, {"measurement": "UL44 (P16790) protein level", "setting": "timepoint 72, DE", "value": 0.07887}, {"measurement": "UL48 (P16785) protein level", "setting": "timepoint 72, DE", "value": 0.0801}, {"measurement": "UL54 (P08546) protein level", "setting": "timepoint 72, DE", "value": 0.6639}, {"measurement": "UL71 (P16823) protein level", "setting": "timepoint 72, DE", "value": 0.3054}, {"measurement": "UL78 (P16751) protein level", "setting": "timepoint 72, DE", "value": 0.3616}, {"measurement": "UL84 (P16727) protein level", "setting": "timepoint 72, DE", "value": 0.08785}, {"measurement": "UL95 (P16801) protein level", "setting": "timepoint 72, DE", "value": 0.157}, {"measurement": "UL96 (P16787) protein level", "setting": "timepoint 72, DE", "value": 0.2632}, {"measurement": "UL97 (P16788) protein level", "setting": "timepoint 72, DE", "value": 0.1687}, {"measurement": "UL98 (P16789) protein level", "setting": "timepoint 72, DE", "value": 0.2967}, {"measurement": "UL102 (P16827) protein level", "setting": "timepoint 72, DE", "value": 0.7626}, {"measurement": "UL104 (P16735) protein level", "setting": "timepoint 72, DE", "value": 0.1005}, {"measurement": "UL112/UL113 (P17151) protein level", "setting": "timepoint 72, DE", "value": 0.3808}, {"measurement": "UL114 (P16769) protein level", "setting": "timepoint 72, DE", "value": 0.6517}, {"measurement": "UL119/UL118 (P16739) protein level", "setting": "timepoint 72, DE", "value": 0.4195}, {"measurement": "UL128 (P16837) protein level", "setting": "timepoint 72, DE", "value": 0.04728}, {"measurement": "US8 (P09730) protein level", "setting": "timepoint 72, DE", "value": 0.5794}, {"measurement": "US9 (P09729) protein level", "setting": "timepoint 72, DE", "value": 0.5649}, {"measurement": "US12 (P09721) protein level", "setting": "timepoint 72, DE", "value": 0.4239}, {"measurement": "US13 (P09720) protein level", "setting": "timepoint 72, DE", "value": 0.5351}, {"measurement": "US14 (P09719) protein level", "setting": "timepoint 72, DE", "value": 0.1559}, {"measurement": "US18 (P69334) protein level", "setting": "timepoint 72, DE", "value": 0.5415}, {"measurement": "US22 (P09722) protein level", "setting": "timepoint 72, DE", "value": 0.4813}, {"measurement": "US23 (P09701) protein level", "setting": "timepoint 72, DE", "value": 0.3933}, {"measurement": "US24 (P09700) protein level", "setting": "timepoint 72, DE", "value": 0.3114}, {"measurement": "US34 (P09709) protein level", "setting": "timepoint 72, DE", "value": 0.2066}, {"measurement": "gB (P06473) protein level", "setting": "timepoint 72, DE", "value": 0.1022}, {"measurement": "IRS1 (P09715) protein level", "setting": "timepoint 72", "value": 0.5625}, {"measurement": "TRS1 (P09695) protein level", "setting": "timepoint 72", "value": 0.5284}, {"measurement": "UL13 (P16755) protein level", "setting": "timepoint 72", "value": 0.3604}, {"measurement": "UL36 (P16767) protein level", "setting": "timepoint 72", "value": 0.601}, {"measurement": "UL37 (P16778) protein level", "setting": "timepoint 72", "value": 0.719}, {"measurement": "UL122 (P19893) protein level", "setting": "timepoint 72", "value": 0.05427}, {"measurement": "UL123 (P13202) protein level", "setting": "timepoint 72", "value": 0.4451}, {"measurement": "CVC1 (P16799) protein level", "setting": "timepoint 72, L", "value": 0.09678}]}
